Measured values from patent US12064399B2, “Use of cannabinoids in the treatment of epilepsy” (Jazz Pharmaceuticals Research UK Limited, priority 2015, dated 2024).

Columns and labels:
[1] = tested on: focal seizures leading to secondary generalisation; assay: Expanded access compassionate use program: 50% responders for focal seizures leading to secondary generalisation; format: in vivo, human; details: proportion of patients; 12 weeks of treatment
[2] = tested on: myoclonic absence seizures; assay: Patients with greater than 50% reduction of myoclonic absence seizures under CBD; format: in vivo, human; details: treatment with CBD
absence seizures = assay: Patients with greater than 50% reduction of absence seizures under CBD; format: in vivo, human; details: treatment with CBD
refractory epilepsy = details: Press et al.; parental reporting; cited from earlier work
[3] = Solubility of the drug substance in water; format: physicochemical
seizures [4] = details: 200 mg/day of pure CBD; four adult patients; cited from earlier work
seizures [5] = details: 200 mg day of pure CBD; twelve institutionalized adult patients; open label; cited from earlier work
seizures [6] = details: mice; after administration of pro-convulsant drugs or an electric current; cited from earlier work
total seizures = assay: Expanded access compassionate use program: 50% responders for total seizures, all subjects; format: in vivo, human; details: proportion of all subjects treated; 12 weeks of treatment
Description: The terms “50% responder” and “50% reduction in seizure” are both terms used in clinical studies. In the present application the terms define the percentage of subjects that experienced a greater than or equal to 50% reduction in the number of seizures during treatment with CBD in comparison to the number experienced during the baseline period before the CBD was administered.
Of 137 children and young adults with severe, childhood onset treatment-resistant epilepsy (TRE), fifty-one suffered from epilepsy that was characterised by focal seizures. These subjects were tested with a highly purified extract of cannabidiol (CBD) obtained from a Cannabis plant. All subjects presented with focal type seizures, often in addition to generalised seizures. The participants in the study were part of an expanded access compassionate use program for CBD.
All patients entered a baseline period of 4 weeks when parents/caregivers kept prospective seizure diaries, noting all countable seizure types.
The patients then received a highly purified CBD extract (greater than 98% CBD w/w) in sesame oil, of known and constant composition, at a dose of 5 mg/kg/day in addition to their baseline anti-epileptic drug (AED) regimen.

[7] = tested on: focal seizures without impairment; assay: Expanded access compassionate use program: 50% responders for focal seizures without impairment; format: in vivo, human; details: proportion of patients; 12 weeks of treatment
generalized epilepsy = details: of eight adult patients with generalized epilepsy; cited from earlier work
seizures [8] = details: Consroe et al., 1977; cited from earlier work

## C=C(C)[C@@H]1CCC(C)=C[C@H]1c1c(O)cc(CCCCC)cc1O [CBD, Cannabidiol]
[1]
  <50% reduction in seizures, Focal Seizures Leading to Secondary Generalised (n = 15): 53%
  >50% reduction in seizures, Focal Seizures Leading to Secondary Generalised (n = 15): 47%
[2]
  proportion of patients with greater than 50% reduction of myoclonic absence seizures: 75%
Absence seizures
  proportion of patients with greater than 50% reduction of absence seizures: 64%
Refractory epilepsy
  responder rate by OCE type: 35%
[3]
  solubility in water: insoluble
Seizures [4]
  patients who became seizure free: two of the four patients became seizure free
Seizures [5]
  control of seizures: ineffective
Seizures [6]
  prevention of seizures: able to prevent seizures
Total seizures
  <50% reduction in seizures, Total seizures (n = 137): 54% (n = 74)
[7]
  <50% reduction in seizures, Focal Seizures without Impairment (n = 6): 50%
  >50% reduction in seizures, Focal Seizures without Impairment (n = 6): 50%
Generalized epilepsy
  patients with marked reduction of seizures: 4

## CCCCCc1cc(O)c2c(c1)OC(C)(C)[C@@H]1CCC(C)=C[C@@H]21 [THC, Tetrahydrocannabinol]
Seizures [8]
  effect on seizures: pro-convulsant
